The target of one experiment is T1, κ opioid receptor (Homo sapiens, UniProt P41145).
T1 construct: expressed in transfected cells; host or cells: CHO cells (membranes)
Nature of the experiment: Competition binding assay on membranes of CHO cells expressing κ opioid receptor, [3H]-labeled ligand. The conditions noted are these: Table 5-1; for inhibition at 1 µM: 0.5 h, 1 μM concentration of compound, read-out: κOR Combination rate (%); for Ki: read-out: κOR Ki. In a few lines:
(§1)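 CHO membranes (20–30 μg protein) incubated with [3H]-labeled ligand at 1–2 nM and test compounds, 30 min at 30° C; nonspecific binding with 1 μM corresponding ligand. Filtered on GF/C, washed with 50 mM Tris-HCl pH 7.4, scintillation-counted. IC50 converted to Ki by Ki=IC50/(1+[L]/Kd).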

For another experiment, the target named is T2, δ opioid receptor (Homo sapiens, UniProt P41143).
T2 construct: expressed in transfected cells; host or cells: CHO cells (membranes)
Put plainly: Competition binding assay on membranes of CHO cells expressing δ opioid receptor, [3H]-labeled ligand. Particulars: Table 5-1; for inhibition at 1 µM: 0.5 h, 1 μM concentration of compound, read-out: δOR Combination rate (%); for Ki: read-out: δOR Ki. Summed up:
as §1

For a further experiment, the system named is Female mice. Put plainly: In vivo hot plate method analgesia test. The conditions noted are these: intraperitoneal; for Maximum percentage effective analgesia (% MPE): Table 5-2, hot plate 55° C., 10 mg/kg dose. The procedure:
Female mice weighing about 20 g were placed on a hot plate apparatus preheated to 55° C., and the latency of the hindfoot response of the mice was used as the pain threshold indicator. Animals were screened before the experiment, and those with response latency less than 5 s or more than 30 s were excluded. To prevent foot scalding, the maximum observation time was set at 60 s. The basal pain threshold was the average of two measurements, with a 5-min interval between measurements. pain thresholds were measured at 15 m, 30 m, 60 m and 120 m after intraperitoneal injection in each group of mice. The percentage effective analgesia (% MPE) was calculated according to the following formula: percentage effective analgesia (% MPE) (post-dose latency−pre-dose latency)/(60−pre-dose latency)×100%. ED50 values were calculated based on the effective percentage of analgesia using the software Graphpad prism 5.0 software.
(§2) Female mice weighing about 20 g were placed on a hot plate apparatus preheated to 55° C., and the latency of the hindfoot response of the mice was used as the pain threshold indicator. Animals were selected before the experiment, and those with response latency less than 5 s or greater than 30 s were excluded. To prevent foot scalding, the maximum observation time was set at 60 s. The basal pain threshold was the average of two measurements, with a 5-min interval between measurements. pain thresholds were measured at 15 min, 30 min, 60 min and 120 min after intraperitoneal administration in each group of mice. The percentage of analgesic effectiveness (% MPE) was calculated according to the following equation. Percentage of effective analgesia (% MPE)_(Pre-dose incubation period−Incubation period after drug administration)/(60-Pre-dose incubation period)×100%. ED50 values were calculated based on the effective percentage of analgesia using GraphPad prism 5.0 software.
as §2, with “were screened” for “were selected”, “measurements. Pain” for “measurements. pain”, “following formula.” for “following equation. Percentage of effective analgesia (% MPE)_(Pre-dose incubation period−Incubation period after drug administration)/(60-Pre-dose incubation period)×100%. ED50 values were calculated based on the effective percentage of analgesia using GraphPad prism 5.0 software.”
ED50 values were calculated based on the effective percentage of analgesia using Graphpad Prism 5.0.
Female mice weighing about 20 g were placed on a hot plate apparatus preheated to 55° C., and the latency of the hindfoot response of the mice was used as the pain threshold indicator. Animals were screened before the experiment, and those with response latency less than 5 s or more than 30 s were excluded. To prevent foot scalding, the maximum observation time was set at 60 s. The basal pain threshold was the average of two measurements, with a 5-min interval between measurements. pain thresholds were measured at 15 min, 30 min, 60 min and 120 min after intraperitoneal administration in each group of mice. The analgesic effective percentage (% MPE) was calculated according to the following formula: analgesic effective percentage (% MPE)=(latency after drug administration−latency before drug administration)/(60−latency before drug administration)×100%. ED50 values were calculated based on the effective percentage of analgesia using the software Graphpad prism 5.0.
Female mice weighing about 20 g were placed on a hot plate apparatus preheated to 55° C. and the latency of the hindfoot response was used as an indicator of pain threshold. […]
(Hot-plate and tail-flick tests time the reaction to a heat stimulus.)

For the next experiment, the target named is T3, μ opioid receptor (Homo sapiens, UniProt P35372).
T3 construct: expressed in transfected cells; host or cells: CHO cells (membranes)
Nature of the experiment: Competition binding assay on membranes of CHO cells expressing μ opioid receptor, [3H]-labeled ligand. Particulars: Table 5-1; for inhibition at 1 µM: 0.5 h, 1 μM concentration of compound, read-out: μOR Combination rate (%); for Ki: read-out: μOR Ki. In a few lines: as §1

On to `COc1cccc(C2(O)CCN(C(=O)Cn3cnnn3)CC2CN(C)C)c1.Cl` (stereo not drawn) [FWBE7, 1-(3-((Dimethylamino)methyl)-4-hydroxy-4-(3-methoxyphenyl)piperidin-1-yl)-2-(1H-tetrazol-1-yl)ethyl-1-one hydrochloride], for which the inhibition at 1 µM at κ opioid receptor worked out at 22.9 ± 0.6%; at δ opioid receptor, 8.9 ± 2.4%; on μ opioid receptor, 0%. The “Maximum percentage effective analgesia (% MPE)” value in the experiment on Female mice came to 12.0%.
With `COc1cccc(C2(O)CCN(C(=O)Cc3cccs3)CC2CN(C)C)c1.Cl` (stereo not drawn) [FWBE8, 1-(3-((Dimethylamino)methyl)-4-hydroxy-4-(3-methoxyphenyl)piperidin-1-yl)-2-(thiophen-2-yl)ethyl-1-one hydrochloride], the inhibition at 1 µM at κ opioid receptor was determined as 32.5 ± 4.4%; at δ opioid receptor, 18.7 ± 1.9%. For the same compound, the “Maximum percentage effective analgesia (% MPE)” value in the experiment with Female mice came to 93.0%. Also, the Ki – broadly, the equilibrium dissociation constant of an inhibitor or competing ligand from its target – at μ opioid receptor amounted to 34.8 ± 1.1 nM.
Take `COc1cccc(C2(O)CCN(C(=O)Cc3cccc(Cl)c3)CC2CN(C)C)c1.Cl` (stereo not drawn) [FWBE9, 2-(3-Chlorophenyl)-1-(3-((dimethylamino)methyl)-4-hydroxy-4-(3-methoxyphenyl)piperidin-1-yl)ethyl-1-one hydrochloride]: the figures for the Ki on κ opioid receptor, on δ opioid receptor and at μ opioid receptor were 1010 ± 60.1 nM, 1640 ± 148 nM and 24.2 nM, respectively. Also, the “Maximum percentage effective analgesia (% MPE)” value in the experiment on Female mice was 86.38%.
For `COc1cccc(C2(O)CCN(C(=O)Cc3cccc(F)c3)CC2CN(C)C)c1.Cl` (stereo not drawn) [FWBE12, 1-(3-((Dimethylamino)methyl)-4-hydroxy-4-(3-methoxyphenyl)piperidin-1-yl)-2-(3-fluorophenyl)ethyl-1-one hydrochloride], in that order: 2360 ± 95.5 nM, 2390 ± 46 nM, 82.3 ± 3.8 nM and 88.38%.
For `COc1cccc(C2(O)CCN(C(=O)Cn3ccc4ccccc43)CC2CN(C)C)c1.Cl` (stereo not drawn) [FWBE14, 1-(3-((Dimethylamino)methyl)-4-hydroxy-4-(3-methoxyphenyl)piperidin-1-yl)-2-(1H-indol-1-yl)ethyl-1-one hydrochloride], the Ki at κ opioid receptor worked out at 4060 ± 382 nM; on δ opioid receptor, 1180 ± 220 nM; on μ opioid receptor it was 72.9 ± 0.1 nM. For the same compound, the “Maximum percentage effective analgesia (% MPE)” value in the experiment on Female mice came to 54.23%.
For `COc1cccc(C2(O)CCN(C(=O)Cc3ccc4ccccc4c3)CC2CN(C)C)c1.Cl` (stereo not drawn) [FWBE15, 1-(3-((Dimethylamino)methyl)-4-hydroxy-4-(3-methoxyphenyl)piperidin-1-yl)-2-(naphthalen-2-yl)ethyl-1-one hydrochloride] the same measures were 2651 ± 3.5 nM, greater than 10000 nM, 81.6 ± 1 nM and 0%.
For `COc1cccc(C2(O)CCN(C(=O)Cc3cccc4ccccc34)CC2CN(C)C)c1.Cl` (stereo not drawn) [FWBE16, 1-(3-((Dimethylamino)methyl)-4-hydroxy-4-(3-methoxyphenyl)piperidin-1-yl)-2-(naphthalen-1-yl)ethyl-1-one hydrochloride] the same measures were 1700 ± 379 nM, 2160 ± 72 nM, 353 ± 4.5 nM and 78.72%.
For `COc1cccc(C2(O)CCN(C(=O)Cc3ccc(Cl)c(Cl)c3)CC2CN(C)C)c1.Cl` (stereo not drawn) [FWBE17, 2-(3,4-Dichlorophenyl)-1-(3-((dimethylamino)methyl)-4-hydroxy-4-(3-methoxyphenyl)piperidin-1-yl)ethyl-1-one hydrochloride], in that order: 288 ± 12.8 nM, 805 ± 173 nM, 69.2 ± 0.4 nM and 70.66%.
In the case of `COc1cccc(C2(O)CCN(C(=O)Cc3cc(F)c(F)cc3F)CC2CN(C)C)c1.Cl` (stereo not drawn) [FWBE18, 1-(3-((Dimethylamino)methyl)-4-hydroxy-4-(3-methoxyphenyl)piperidin-1-yl)-2-(2,4,5-trifluorophenyl)ethyl-1-one hydrochloride], the figures for the inhibition at 1 µM on κ opioid receptor, at δ opioid receptor and on μ opioid receptor were 61.6 ± 0.7%, 0% and 29.7 ± 1.9%, respectively. For the same compound, the ED50 (usually the dose that gives a 50% effect, or the effect in half of the subjects) with Female mice (Mus musculus, ip, Table 5-2, hot plate) is 1.11 mg/kg.

For the origin of these results see US12624004B2 (Fudan University, priority 2019, dated 2026).
